Reference: patent publication US12419890B2, “Administration of sumo-activating enzyme inhibitor and checkpoint inhibitors” (Takeda Pharmaceutical Company Limited, priority 2019, dated 2025)

Assays:
[1] = system: A20 syngeneic mouse B-cell lymphoma-derived subcutaneous tumor; assay: A20 Study 3: mouse A20 syngeneic tumor model, individual tumor volume; assay type: in vivo
Description: A20 Study 3: A20 is a mouse B-cell lymphoma cell line. A20 mouse syngeneic tumor model was generated by subcutaneous inoculation with 1.0×10^6 A20 cells (cell suspension) in 8 weeks old female BALB/c mice (Jackson Laboratory, 600 Main St, Bar Harbor, ME) in the flank. When the mean tumor volume reached approximately 50 mm^3, the animals were randomized into one vehicle control and three treatment groups (n=7/group). Mice were then dosed with 20% HPbCD or Compound I-263a or anti-mouse PD-1 antibody over a 11-day period. Tumor growth and body weight were measured twice per week during the treatment and post-treatment periods, and mice were humanely euthanized once they had reached their humane endpoint.
Study 3: A 1.65 mg/mL stock solution of Compound I-263a was formulated weekly in 20% HPβCD and administered intravenously (IV) based on exact animal body weight on each day of treatment, using a dosing volume of 10 mL/kg body weight. Final doses received were 15 mg/kg. Dosing volume for Compound I-263a was 0.2 mL. […]
Tumors were measured twice weekly using vernier calipers. Tumor volumes were calculated using standard equation: V=W^2×L/2, where V=volume, W=width, and L=length for the tumor. […] Tumor size and body weight were measured twice a week for the duration of the study. […]

[2] = system: SUMO-activating enzyme and SUMOylation; assay: inhibition of SUMO-activating enzyme and SUMOylation in cultured tumor cell lines; assay type: cell-based; conditions: cultured mouse and human tumor cell lines
From the text: SAE inhibitors, as disclosed herein, are described, for example, in US 2016/0009744 and U.S. Pat. No. 9,695,154. They may be prepared by methods known to one skilled in the art and/or according to the methods described in US 2016/0009744 and U.S. Pat. No. 9,695,154, which is hereby incorporated by reference in its entirety. Central to the mechanism of action of useful SAE inhibitors, such as Compound I-263a, in combinations and methods of the present disclosure is production of type 1 IFNs and induction of an innate immune response with activation of dendritic cells, natural killer (NK) cells and macrophages.

Structure (SMILES): Cc1sc(C(=O)c2cncnc2N[C@@H]2C[C@H](COS(N)(=O)=O)[C@@H](O)C2)cc1[C@@H]1NCCc2ccc(Cl)cc21 [Compound I-263a, [(1R,2S,4R)-4-{[5-({4-[(1R)-7-chloro-1,2,3,4-tetrahydroisoquinolin-1-yl]-5-methyl-2-thienyl}carbonyl)pyrimidin-4-yl]amino}-2-hydroxycyclopentyl]methyl sulfamate]
- inhibition of tumor growth ([1]; Compound I-263a 15 mg/kg IV QWx1 (Day 1), 7 tumors/group): modest inhibition
- tumors in stasis ([1]; stasis to day 8 of treatment, followed by rapid growth, out of 7 implanted, Compound I-263a 15 mg/kg IV Day 1): 2
- inhibition of SUMO-activating enzyme and SUMOylation [2]: Selective and potent inhibition
